Experimental data reported in PubChem BioAssay (NCI).
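Where inhibition never reached the appropriate level, the endpoint shown equals the highest concentration tested. Otherwise, values were interpolated linearly from a five-concentration, 48-hour dose response in 96-well plates. TGI: concentration producing complete growth inhibition.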

Legend:
Assay in all cases: NCI-60 cell line screen, 48 h
OVCAR-8 ovarian = test system: OVCAR-8 ovarian
RXF 393 renal = test system: RXF 393 renal
NCI-H522 lung = test system: NCI-H522 lung
M14 melanoma = test system: M14 melanoma
SN12C renal = test system: SN12C renal
UACC-62 melanoma = test system: UACC-62 melanoma
MDA-N = test system: MDA-N
HCC-2998 colon = test system: HCC-2998 colon
OVCAR-3 ovarian = test system: OVCAR-3 ovarian
TK-10 renal = test system: TK-10 renal
SF-268 CNS = test system: SF-268 CNS
OVCAR-5 ovarian = test system: OVCAR-5 ovarian
EKVX NSCLC = test system: EKVX NSCLC
COLO 205 colon = test system: COLO 205 colon
MOLT-4 leukemia = test system: MOLT-4 leukemia
MCF7 breast = test system: MCF7 breast
SK-MEL-2 melanoma = test system: SK-MEL-2 melanoma
HT29 colon = test system: HT29 colon
NCI/ADR-RES ovarian = test system: NCI/ADR-RES ovarian
OVCAR-4 ovarian = test system: OVCAR-4 ovarian
SR leukemia = test system: SR leukemia
UACC-257 melanoma = test system: UACC-257 melanoma
HOP-62 NSCLC = test system: HOP-62 NSCLC
DU-145 prostate = test system: DU-145 prostate
HCT-15 colon = test system: HCT-15 colon
HOP-92 NSCLC = test system: HOP-92 NSCLC
CAKI-1 renal = test system: CAKI-1 renal
NCI-H226 lung = test system: NCI-H226 lung
K-562 leukemia = test system: K-562 leukemia
786-0 renal = test system: 786-0 renal
T-47D breast = test system: T-47D breast
U251 CNS = test system: U251 CNS
SF-295 CNS = test system: SF-295 CNS
IGROV1 ovarian = test system: IGROV1 ovarian
MDA-MB-435 = test system: MDA-MB-435
CCRF-CEM leukemia = test system: CCRF-CEM leukemia
NCI-H460 lung = test system: NCI-H460 lung
SK-OV-3 ovarian = test system: SK-OV-3 ovarian
MDA-MB-231 breast = test system: MDA-MB-231 breast
SK-MEL-5 melanoma = test system: SK-MEL-5 melanoma
SNB-19 CNS = test system: SNB-19 CNS
ACHN renal = test system: ACHN renal
LOX IMVI melanoma = test system: LOX IMVI melanoma
HCT-116 colon = test system: HCT-116 colon
HL-60(TB) leukemia = test system: HL-60(TB) leukemia
BT-549 breast = test system: BT-549 breast
SK-MEL-28 melanoma = test system: SK-MEL-28 melanoma
PC-3 prostate = test system: PC-3 prostate
A549 NSCLC = test system: A549 NSCLC
UO-31 renal = test system: UO-31 renal
KM12 colon = test system: KM12 colon
HS 578T breast = test system: HS 578T breast
RPMI-8226 leukemia = test system: RPMI-8226 leukemia
MALME-3M melanoma = test system: MALME-3M melanoma
NCI-H23 lung = test system: NCI-H23 lung
SNB-75 CNS = test system: SNB-75 CNS
DLD-1 colon = test system: DLD-1 colon
HOP-18 NSCLC = test system: HOP-18 NSCLC
SW-620 colon = test system: SW-620 colon
DMS 273 small cell lung = test system: DMS 273 small cell lung
M19-MEL melanoma = test system: M19-MEL melanoma
KM20L2 colon = test system: KM20L2 colon
LXFL 529 NSCLC = test system: LXFL 529 NSCLC

Compound: CCOc1cc(CCNC)c2c(ccc3ccc(OC)c(O)c32)c1OC
- TGI (OVCAR-8 ovarian): 29.4 µM
- TGI (RXF 393 renal): 31.5 µM
- TGI (NCI-H522 lung): 21.7 µM
- TGI (M14 melanoma): 28.5 µM
- TGI (SN12C renal): 36.7 µM
- TGI (UACC-62 melanoma): 31.1 µM
- TGI (MDA-N): 10.5 µM
- TGI (HCC-2998 colon): 30 µM
- TGI (OVCAR-3 ovarian): 29.8 µM
- TGI (TK-10 renal): 32.7 µM
- TGI (SF-268 CNS): 38.3 µM
- TGI (OVCAR-5 ovarian): 29.5 µM
- TGI (EKVX NSCLC): 36.3 µM
- TGI (COLO 205 colon): 42 µM
- TGI (MOLT-4 leukemia): 26.4 µM
- TGI (MCF7 breast): 22.4 µM
- TGI (SK-MEL-2 melanoma): 34.2 µM
- TGI (HT29 colon): 30.7 µM
- TGI (NCI/ADR-RES ovarian): 48.2 µM
- TGI (OVCAR-4 ovarian): 27.2 µM
- TGI (SR leukemia): 20.5 µM
- TGI (UACC-257 melanoma): 29.6 µM
- TGI (HOP-62 NSCLC): 37 µM
- TGI (DU-145 prostate): 28.5 µM
- TGI (HCT-15 colon): 35.7 µM
- TGI (HOP-92 NSCLC): 25.2 µM
- TGI (CAKI-1 renal): 34 µM
- TGI (NCI-H226 lung): 46.9 µM
- TGI (K-562 leukemia): > 100 µM
- TGI (786-0 renal): 32.1 µM
- TGI (T-47D breast): 51.1 µM
- TGI (U251 CNS): 32.2 µM
- TGI (SF-295 CNS): 30.1 µM
- TGI (IGROV1 ovarian): 27.7 µM
- TGI (MDA-MB-435): 27.5 µM
- TGI (CCRF-CEM leukemia): > 100 µM
- TGI (NCI-H460 lung): 32.9 µM
- TGI (SK-OV-3 ovarian): 27.5 µM
- TGI (MDA-MB-231 breast): 28.5 µM
- TGI (SK-MEL-5 melanoma): 26.1 µM
- TGI (SNB-19 CNS): 30.1 µM
- TGI (ACHN renal): 26.5 µM
- TGI (LOX IMVI melanoma): 24.2 µM
- TGI (HCT-116 colon): 22.1 µM
- TGI (HL-60(TB) leukemia): > 100 µM
- TGI (BT-549 breast): 30.1 µM
- TGI (SK-MEL-28 melanoma): 37.8 µM
- TGI (PC-3 prostate): 27.6 µM
- TGI (A549 NSCLC): 39.6 µM
- TGI (UO-31 renal): 29.6 µM
- TGI (KM12 colon): 26.4 µM
- TGI (HS 578T breast): 45 µM
- TGI (RPMI-8226 leukemia): > 100 µM
- TGI (MALME-3M melanoma): 20 µM
- TGI (NCI-H23 lung): 27.1 µM
- TGI (SNB-75 CNS): 32.3 µM

Compound: C[C@@]12[Se]c3ccccc3[C@]1(C)[Se]c1ccccc12
- TGI (OVCAR-8 ovarian): > 100 µM
- TGI (DLD-1 colon): > 100 µM
- TGI (HOP-18 NSCLC): > 100 µM
- TGI (NCI-H522 lung): > 100 µM
- TGI (M14 melanoma): > 100 µM
- TGI (SN12C renal): > 100 µM
- TGI (UACC-62 melanoma): 7.18 µM
- TGI (HCC-2998 colon): > 100 µM
- TGI (OVCAR-3 ovarian): > 100 µM
- TGI (TK-10 renal): > 100 µM
- TGI (SW-620 colon): > 100 µM
- TGI (SF-268 CNS): > 100 µM
- TGI (OVCAR-5 ovarian): > 100 µM
- TGI (EKVX NSCLC): > 100 µM
- TGI (DMS 273 small cell lung): > 100 µM
- TGI (COLO 205 colon): > 100 µM
- TGI (M19-MEL melanoma): > 100 µM
- TGI (SK-MEL-2 melanoma): > 100 µM
- TGI (KM20L2 colon): > 100 µM
- TGI (HT29 colon): > 100 µM
- TGI (OVCAR-4 ovarian): > 100 µM
- TGI (HOP-92 NSCLC): > 100 µM
- TGI (CAKI-1 renal): > 100 µM
- TGI (NCI-H226 lung): > 100 µM
- TGI (K-562 leukemia): > 100 µM
- TGI (786-0 renal): > 100 µM
- TGI (U251 CNS): > 100 µM
- TGI (SF-295 CNS): > 100 µM
- TGI (CCRF-CEM leukemia): > 100 µM
- TGI (SK-MEL-5 melanoma): > 100 µM
- TGI (ACHN renal): > 100 µM
- TGI (LOX IMVI melanoma): > 100 µM
- TGI (HCT-116 colon): > 100 µM
- TGI (HL-60(TB) leukemia): 8.4 µM
- TGI (LXFL 529 NSCLC): > 100 µM
- TGI (KM12 colon): > 100 µM
- TGI (RPMI-8226 leukemia): > 100 µM
- TGI (MALME-3M melanoma): > 100 µM
- TGI (NCI-H23 lung): > 100 µM
